Data published in ChEMBL document CHEMBL3739423, “Synthesis, biological evaluation and mechanism study of a class of benzylideneindanone derivatives as novel anticancer agents” (Medchemcomm, 2015).
One block for each compound: values may come before it. The source made the active and inactive calls. No cut-off for these calls is given here.

Assays:
MDA-MB-231 = assay: Antiproliferative activity against human MDA-MB-231 cells after 48 hrs by MTT assay; assay type: functional; settings: MDA-MB-231, 48 h
Tubulin = assay: Inhibition of tubulin polymerization (unknown origin) by fluorescence analysis; assay type: protein-complex assay, Homo sapiens
A549 = assay: Antiproliferative activity against human A549 cells after 48 hrs by MTT assay; assay type: functional; settings: A549, 48 h
HeLa [1] = assay: Antiproliferative activity against human HeLa cells after 48 hrs by MTT assay; assay type: functional
[2] = Antiproliferative activity against human Bel7402 cells after 48 hrs by MTT assay; assay type: functional; settings: Bel-7402, 48 h
[3] = Antiproliferative activity against human PC3 cells after 48 hrs by MTT assay; assay type: functional; settings: PC-3, 48 h
HeLa [4] = assay: Cell cycle arrest in human HeLa cells assessed as accumulation at G2/M phase at 0.05 microM after 48 hrs by flow cytometry; assay type: functional
HeLa [5] = assay: Induction of microtubule disruption in human HeLa cells assessed as irregular cytoplasm and chromosomes at 0.5 microM after 48 hrs by hoechst-33342-staining based confocal microscopy analysis; assay type: cell-based
HeLa [6] = assay: Induction of apoptosis in human HeLa cells assessed as late necrotic cells at 0.5 uM after 48 hrs by annexin-v-PI staining based flow cytometry (reference value: 0.09%); assay type: functional
HeLa [7] = assay: Cell cycle arrest in human HeLa cells assessed as accumulation at G2/M phase at 0.5 microM after 48 hrs by flow cytometry; assay type: functional
HeLa [8] = assay: Induction of apoptosis in human HeLa cells assessed as early apoptotic cells at 0.05 uM after 48 hrs by annexin-v-PI staining based flow cytometry (reference value: 1.44%); assay type: functional
HeLa [9] = assay: Cell cycle arrest in human HeLa cells assessed as accumulation at G2/M phase at 0.1 microM after 48 hrs by flow cytometry; assay type: functional
HeLa [10] = assay: Induction of microtubule disruption in human HeLa cells assessed as destabilized microtubule network at 0.05,0.1, 0.5 microM after 48 hrs by hoechst-33342-staining based confocal microscopy analysis; assay type: cell-based
HeLa [11] = assay: Cell cycle arrest in human HeLa cells assessed as accumulation at G2/M phase after 48 hrs by flow cytometry; assay type: functional, cell-based
HeLa [12] = assay: Induction of apoptosis in human HeLa cells assessed as viable cells at 0.05 uM after 48 hrs by annexin-v-PI staining based flow cytometry (reference value: 98.4%); assay type: functional; settings: read-out: Activity
HeLa [13] = assay: Induction of apoptosis in human HeLa cells assessed as early apoptotic cells at 0.1 uM after 48 hrs by annexin-v-PI staining based flow cytometry (reference value: 1.44%); assay type: functional
HeLa [14] = assay: Induction of apoptosis in human HeLa cells assessed as viable cells at 0.5 uM after 48 hrs by annexin-v-PI staining based flow cytometry (reference value: 98.4%); assay type: functional; settings: read-out: Activity
HeLa [15] = assay: Induction of apoptosis in human HeLa cells assessed as late apoptotic cells at 0.5 uM after 48 hrs by annexin-v-PI staining based flow cytometry (reference value: 0.08%); assay type: functional
HeLa [16] = assay: Induction of apoptosis in human HeLa cells assessed as late apoptotic cells at 0.05 uM after 48 hrs by annexin-v-PI staining based flow cytometry (reference value: 0.08%); assay type: functional
HeLa [17] = assay: Induction of apoptosis in human HeLa cells assessed as late apoptotic cells at 0.1 uM after 48 hrs by annexin-v-PI staining based flow cytometry (reference value: 0.08%); assay type: functional
HeLa [18] = assay: Induction of apoptosis in human HeLa cells assessed as early apoptotic cells at 0.5 uM after 48 hrs by annexin-v-PI staining based flow cytometry (reference value: 1.44%); assay type: functional
HeLa [19] = assay: Induction of apoptosis in human HeLa cells assessed as viable cells at 0.1 uM after 48 hrs by annexin-v-PI staining based flow cytometry (reference value: 98.4%); assay type: functional; settings: read-out: Activity
HeLa [20] = assay: Induction of apoptosis in human HeLa cells assessed as late necrotic cells at 0.05 uM after 48 hrs by annexin-v-PI staining based flow cytometry (reference value: 0.09%); assay type: functional
HeLa [21] = assay: Induction of apoptosis in human HeLa cells assessed as late necrotic cells at 0.1 uM after 48 hrs by annexin-v-PI staining based flow cytometry (reference value: 0.09%); assay type: functional
HeLa [22] = assay: Induction of apoptosis in human HeLa cells after 48 hrs by annexin-v-PI staining based flow cytometry; assay type: functional, cell-based
HeLa [23] = assay: Induction of microtubule disruption in human HeLa cells assessed as microtubule heavily shrunk around centre of cells at 0.5 microM after 48 hrs by hoechst-33342-staining based confocal microscopy analysis; assay type: cell-based

SMILES: COc1cc2c(cc1OC)C(=O)/C(=C/c1cc(OC)c(OC)c(OC)c1)C2
GI50 (MDA-MB-231): > 10 µM | GI50 (A549): > 10 µM | GI50 (HeLa [1]): > 10 µM | GI50 [2]: > 10 µM | GI50 [3]: > 10 µM

SMILES: COc1cc2c(cc1O)C(=O)/C(=C/c1cc(OC)c(OC)c(OC)c1)C2
GI50 (MDA-MB-231): > 10 µM | GI50 (A549): > 10 µM | GI50 (HeLa [1]): > 10 µM | GI50 [2]: > 10 µM | GI50 [3]: > 10 µM

SMILES: COc1ccc(/C=C2\CCc3c(cc(OC)c(OC)c3OC)C2=O)cc1
GI50 (MDA-MB-231): 38.7 µM | GI50 (A549): 18.9 µM | GI50 (HeLa [1]): 12.4 µM | GI50 [2]: 25.4 µM | GI50 [3]: 19.6 µM

SMILES: COc1cc(/C=C2\Cc3cc(OC)c(OC)c(OC)c3C2=O)cc(OC)c1OC
GI50 (MDA-MB-231): > 10 µM | GI50 (A549): > 10 µM | GI50 (HeLa [1]): > 10 µM | GI50 [2]: > 10 µM | GI50 [3]: > 10 µM

SMILES: COc1cc2c(cc1O)C(=O)/C(=C/c1ccc(OC)c(OC)c1OC)C2
GI50 (MDA-MB-231): 2.41 µM | GI50 (A549): 3.42 µM | GI50 (HeLa [1]): 1.59 µM | GI50 [2]: 9.65 µM | GI50 [3]: 3.14 µM

SMILES: COc1ccc(/C=C\c2cc(OC)c(OC)c(OC)c2)cc1O [COMBRETASTATIN A4]
GI50 (MDA-MB-231): 0.021 µM | GI50 (A549): 0.018 µM | GI50 (HeLa [1]): 0.0028 µM | GI50 [2]: 0.012 µM | GI50 [3]: 0.014 µM

SMILES: COc1ccc(/C=C2\Cc3cc(OC)c(OC)c(OC)c3C2=O)cc1N
GI50 (MDA-MB-231): > 10 µM | GI50 (A549): > 10 µM | GI50 (HeLa [1]): > 10 µM | GI50 [2]: > 10 µM | GI50 [3]: > 10 µM

SMILES: COc1ccc(/C=C2\Cc3cc(OC)c(OC)c(OC)c3C2=O)cc1
GI50 (MDA-MB-231): > 10 µM | GI50 (A549): > 10 µM | GI50 (HeLa [1]): > 10 µM | GI50 [2]: > 10 µM | GI50 [3]: > 10 µM

SMILES: COc1cc(/C=C2\Cc3c(cc(OC)c(OC)c3OC)C2=O)cc(OC)c1OC
GI50 (MDA-MB-231): 5.84 µM | GI50 (A549): 2.79 µM | GI50 (HeLa [1]): 2.37 µM | GI50 [2]: 1.58 µM | GI50 [3]: 4.99 µM

SMILES: COc1cc2c(cc1OC)C(=O)/C(=C/c1ccc(OC)c(OC)c1OC)C2
GI50 (MDA-MB-231): > 10 µM | GI50 (A549): > 10 µM | GI50 (HeLa [1]): > 10 µM | GI50 [2]: > 10 µM | GI50 [3]: > 10 µM

SMILES: COc1cc2c(c(OC)c1OC)C/C(=C\c1cc(OC)c(OC)c(OC)c1OC)C2=O
GI50 (MDA-MB-231): > 10 µM | GI50 (A549): > 10 µM | GI50 (HeLa [1]): > 10 µM | GI50 [2]: > 10 µM | GI50 [3]: > 10 µM

SMILES: COc1ccc(/C=C2\Cc3cc(OC)c(OC)c(OC)c3C2=O)cc1[N+](=O)[O-]
GI50 (MDA-MB-231): > 10 µM | GI50 (A549): > 10 µM | GI50 (HeLa [1]): > 10 µM | GI50 [2]: > 10 µM | GI50 [3]: > 10 µM

More lines, main results first:

GI50 (MDA-MB-231): 0.429 µM | IC50 (Tubulin): 9.62 µM | GI50 (A549): 0.273 µM | GI50 (HeLa [1]): 0.485 µM
SMILES: COc1ccc(/C=C2\Cc3c(cc(OC)c(OC)c3OC)C2=O)cc1
GI50 [2]: 0.56 µM | GI50 [3]: 0.75 µM

GI50 (MDA-MB-231): 29.4 µM | GI50 (A549): 15.4 µM | GI50 (HeLa [1]): 10.2 µM
SMILES: COc1ccc(/C=C2\CCc3c(cc(OC)c(OC)c3OC)C2=O)cc1F
GI50 [2]: 19.3 µM | GI50 [3]: 27.6 µM

GI50 (MDA-MB-231): 0.521 µM | IC50 (Tubulin): 8.92 µM | GI50 (A549): 0.298 µM | GI50 (HeLa [1]): 0.258 µM
SMILES: COc1ccc(/C=C2\Cc3c(cc(OC)c(OC)c3OC)C2=O)cc1F
GI50 [2]: 0.491 µM | GI50 [3]: 0.277 µM

GI50 (MDA-MB-231): 3.49 µM | GI50 (A549): 0.77 µM | GI50 (HeLa [1]): 0.79 µM
SMILES: COc1ccc(/C=C2\Cc3c(cc(OC)c(OC)c3OC)C2=O)cc1[N+](=O)[O-]
GI50 [2]: 0.95 µM | GI50 [3]: 1.56 µM

GI50 (MDA-MB-231): > 10 µM | GI50 (A549): > 10 µM | GI50 (HeLa [1]): > 10 µM
SMILES: COc1ccc(/C=C2\Cc3cc(OC)c(OC)c(OC)c3C2=O)cc1O
GI50 [2]: > 10 µM | GI50 [3]: > 10 µM

GI50 (MDA-MB-231): 0.57 µM | IC50 (Tubulin): 7.56 µM | GI50 (A549): 0.249 µM | GI50 (HeLa [1]): 0.172 µM
SMILES: COc1ccc(/C=C2\Cc3c(cc(OC)c(OC)c3OC)C2=O)cc1O
Activity (HeLa [4]): 23.2% | Activity (HeLa [5]): Active | Activity (HeLa [6]): 4.4% | Activity (HeLa [7]): 46.1% | Activity (HeLa [8]): 6.98% | Activity (HeLa [9]): 35.2% | Activity (HeLa [10]): Active | Activity (HeLa [11]): Dose-dependent effect | viability at 0.05 µM (HeLa [12]): 91.8% | Activity (HeLa [13]): 19% | viability at 0.5 µM (HeLa [14]): 40.6% | Activity (HeLa [15]): 12.6% | Activity (HeLa [16]): 0.82% | Activity (HeLa [17]): 2.57% | Activity (HeLa [18]): 42.4% | viability at 0.1 µM (HeLa [19]): 77.4% | Activity (HeLa [20]): 0.38% | GI50 [2]: 0.307 µM | Activity (HeLa [21]): 1.03% | Activity (HeLa [22]): Dose-dependent effect | GI50 [3]: 0.213 µM | Activity (HeLa [23]): Active

GI50 (MDA-MB-231): 0.485 µM | IC50 (Tubulin): 8.64 µM | GI50 (A549): 0.212 µM | GI50 (HeLa [1]): 0.169 µM
SMILES: COc1ccc(/C=C2\Cc3c(cc(OC)c(OC)c3OC)C2=O)cc1N
GI50 [2]: 0.45 µM | GI50 [3]: 0.456 µM

GI50 (MDA-MB-231): 9.85 µM | GI50 (A549): 9.74 µM | GI50 (HeLa [1]): 8.56 µM
SMILES: COc1ccc(/C=C2\Cc3c(cc(OC)c(OC)c3OC)C2=O)cc1OC
GI50 [2]: 10.5 µM | GI50 [3]: 7.47 µM

GI50 (MDA-MB-231): 0.678 µM | IC50 (Tubulin): 9.05 µM | GI50 (A549): 0.41 µM | GI50 (HeLa [1]): 0.356 µM
SMILES: COc1ccc(/C=C2\Cc3c(cc(OC)c(OC)c3OC)C2=O)cc1Br
GI50 [2]: 0.563 µM | GI50 [3]: 0.389 µM
